{"source": "patent US20220387455A1", "about": "“TREATMENT OF MODERATE TO SEVERE INFLUENZA” (priority 2015, published 2022)", "key": {"[1]": {"assay": "Example 1: clinical safety of single inhaled doses in healthy adults", "format": "in vivo, human", "protocol": "In a controlled clinical environment, 38 healthy adults received single doses of either 0.9% saline solution as placebo or up to 750 mg of ASA by inhalation (placebo n=10, ASA n=28)."}, "[2]": {"tested_on": "influenza virus infection", "conditions": "for Time to alleviation of clinical influenza symptoms (T1), Mean: 800 mg LASAG (400 mg ASA) inhaled three times daily"}, "[3]": {"conditions": "in vivo"}}, "note": "Structures can show the parent of a compound that is named as a salt. Where two headings read alike, the source gives them in different places.", "data": [{"compound": "CC(=O)Oc1ccccc1C(=O)O", "note": "[ASA, acetylsalicylic acid]", "values": [{"measurement": "Serious events or severe adverse effects", "setting": "[1]; single inhaled doses up to 750 mg ASA", "result": "no serious events or severe adverse effects were observed"}, {"measurement": "Tolerability of administered doses", "setting": "[1]; single inhaled doses up to 750 mg ASA as LASAG solution about 200 mg/ml, AKITA Apixneb", "result": "overall well tolerated"}, {"measurement": "Effect on pulmonary function tests parameters", "setting": "[1]; single inhaled doses up to 750 mg ASA, higher doses", "result": "no effect on pulmonary function tests parameters"}]}, {"compound": "CC(=O)Oc1ccccc1C(=O)O", "note": "[LASAG, D,L-lysine acetylsalicylate glycine salt]", "values": [{"measurement": "Time to alleviation of clinical influenza symptoms (T1), Max.", "setting": "[2]; CSS ≥14, per protocol set", "result": 67.4, "unit": "h"}, {"measurement": "Time to alleviation of clinical influenza symptoms (T1), Min.", "setting": "[2]; CSS ≥14, per protocol set", "result": 9.8, "unit": "h"}, {"measurement": "Time to alleviation of clinical influenza symptoms (T1), Q1", "setting": "[2]; CSS ≥14, per protocol set", "result": 23.5, "unit": "h"}, {"measurement": "Time to alleviation of clinical influenza symptoms (T1), Q3", "setting": "[2]; CSS ≥14, per protocol set", "result": 52.4, "unit": "h"}, {"measurement": "Time to alleviation of clinical influenza symptoms (T1), Mean", "setting": "[2]; CSS ≥14, per protocol set", "result": 38.3, "unit": "h"}, {"measurement": "Time to alleviation of clinical influenza symptoms (T1), Median", "setting": "[2]; CSS ≥14, per protocol set, 800 mg LASAG inhaled three times daily", "result": 27.8, "unit": "h"}, {"measurement": "Time to alleviation of clinical influenza symptoms (T1), Max.", "setting": "[2]; CSS ≥17, per protocol set", "result": 66.9, "unit": "h"}, {"measurement": "Time to alleviation of clinical influenza symptoms (T1), Median", "setting": "[2]; CSS ≥17, per protocol set", "result": 47.0, "unit": "h"}, {"measurement": "Time to alleviation of clinical influenza symptoms (T1), Min.", "setting": "[2]; CSS ≥17, per protocol set", "result": 23.5, "unit": "h"}, {"measurement": "Time to alleviation of clinical influenza symptoms (T1), Q1", "setting": "[2]; CSS ≥17, per protocol set", "result": 27.8, "unit": "h"}, {"measurement": "Time to alleviation of clinical influenza symptoms (T1), Q3", "setting": "[2]; CSS ≥17, per protocol set", "result": 62.1, "unit": "h"}, {"measurement": "Time to alleviation of clinical influenza symptoms (T1), Mean", "setting": "[2]; CSS ≥17, per protocol set", "result": 44.7, "unit": "h"}, {"measurement": "Time to alleviation of influenza symptoms T1", "setting": "[2]; first patient group with CSS (log rank p 0.0313), placebo 51.6 h", "result": 38.3, "unit": "h"}, {"measurement": "Difference to placebo in time required for alleviation of clinical influenza symptoms", "setting": "[2]; human, in vivo", "result": "no significant difference"}, {"measurement": "Recovery by baseline corrected daily activity score (DAS)", "setting": "[2]; human, in vivo", "result": "better recovery than the placebo group"}, {"measurement": "Number of inhalations after which patients were alleviated", "setting": "[2]; patients with CSS, assuming start with the morning inhalation, placebo about 9", "result": "about 6 inhalations"}, {"measurement": "Time to alleviation of influenza symptoms T1", "setting": "[2]; second patient group with CSS (log rank p 0.0152), placebo 71.5 h", "result": 44.7, "unit": "h"}, {"measurement": "Number of adverse events (AE)", "setting": "[3]; human", "result": 41}, {"measurement": "Number of patients affected by AE", "setting": "[3]; human", "result": 23}, {"measurement": "Required medication due to AEs", "setting": "[3]; human", "result": "About 56.1%"}, {"measurement": "Share of all adverse events (AE)", "setting": "[3]; human", "result": 49.4, "unit": "%"}, {"measurement": "Share of group patients affected by AE", "setting": "[3]; human", "result": 41.1, "unit": "%"}, {"measurement": "Death or other significant adverse events", "setting": "[3]", "result": "no case of death or other significant adverse events"}, {"measurement": "Difference to placebo with regard to tolerability", "setting": "[3]", "result": "no significant differences"}]}]}
